Literature values, collected in US20200383964A1, “MITOCHONDRIA TARGETING, MPTP REGULATION, AND THE REDUCTION OF MITOCHONDRIAL REACTIVE SPECIES” (priority 2017, published 2020).

Test system: mitochondrial permeability transition pore (MPTP)

Question: With CC(=O)C=O [Methylglyoxal, methylglyoxal] as the compound, how does the “suppression of permeability transition” value (incubation with isolated mitochondria, covalent binding to the MPTP) read?
Answer: complete suppression

Question: And the “time to suppression of the permeability transition” value (isolated mitochondria)?
Answer: ≤ 5 min
